Measured values: US20150283270A1, “MODELING ANTI-LEUKEMIC THERAPY BY PATIENT DERIVED AML XENOGRAFTS WITH DISTINCT PHENOTYPES/GENOTYPES” (Crown Bioscience Inc., priority 2014, published 2015)
Entries after “also recorded” stand apart in the source; their conditions may differ.

Test system: AM7577 leukemic cells (hCD45+)
Assay: Evaluation of anti-leukemia activity of a therapeutic in AM7577-mice (AML patient derived xenograft)
Format: in vivo, NOD/SCID mice
Conditions: for Inhibition of leukemia in blood: FIG. 4 legend; for Leukemic load in peripheral blood (hCD45+): 5-day-on/2-day-off, starting 15 days post-engraftment
Procedure: Animal experiments were conducted at Crown Bioscience's laboratory, China. The transplantation recipient NOD/SCID mice were purchased from Beijing HFK Bioscience at between 3-4 weeks of age. The Institutional Animal Care and Use Committee (IACUC) of Crown Bioscience approved animal study protocols. All procedures were under sterile conditions at Crown Bioscience's SPF facility and conducted in strict accordance with the Guide for the Care and Use of Laboratory Animals of the National Institutes of Health. Ficoll® column isolated MNCs were injected into the tail-vein of 4-week old, sub lethally irradiated NOD/SCID mice ([…]), followed by weekly monitoring for peripheral appearance of leukemic cells (CD45^+) via retro-orbital bleeding and flow analysis. Briefly, ˜50 μL blood was collected into anticoagulative tubes (BD 365974, Becton Dickinson and Co., Franklin Lakes, N.J.). After lysis of red blood cells the cells were stained with 20 μL mouse anti-human CD45 antibody (Biolegend, CA) and incubated on ice for 30 minutes in the dark followed by washing with cold PBS. The cells were resuspended in150 μL PBS and subjected to FACS analysis.
Fifteen days post-engraftment, mice were administered different doses of cytarabine (AraC). Mouse blood was collected by retro-orbital bleed and human CD45^+ cells were quantified weekly by flow cytometry. Body weight and clinical signs were also monitored twice weekly. When mice became morbid due to full-blown leukemia, the animals were sacrificed, followed by gross and microscopic examinations. Major relevant organs (bone marrow, spleen, blood, liver, lymph nodes, etc.) were examined and harvested for further analysis, including IHC (method described previously, Yang, M. et al., Int J Cancer. 2012; Sep. 5. doi: 10.1002/ijc.27813) and immunological phenotyping of the leukemia cells by FACS.
Cytarabine (AraC) is the current standard chemotherapy agent for induction therapy of AML, including AML-M5. We tested AraC anti-leukemic activity against AM7577, by subjecting AM7577-mice to a 5-day-on/2-day-off Ara-C dosing regimen, starting 15 days post-engraftment.
We subsequently explored whether AraC treatment actually cured the disease by withdrawing treatment. The result was rapid relapse just a few days post-treatment withdrawal (FIG. 3A). This observation can potentially be interpreted as AraC has only affected leukemic blasts, but has no affect on LICs.

CC(C)(C)c1cc(NC(=O)Nc2ccc(-c3cn4c(n3)sc3cc(OCCN5CCOCC5)ccc34)cc2)no1 [AC220]
Inhibition of leukemia in blood: Inhibition

Nc1ccn([C@@H]2O[C@H](CO)[C@@H](O)[C@@H]2O)c(=O)n1 [AraC, Cytarabine]
Leukemic load in peripheral blood (hCD45+) (3 mg/kg): no detectable leukemic load | Leukemic load in peripheral blood (hCD45+) (10 mg/kg): no detectable leukemic load | Relapse after drug withdrawal (AM7577-mice, after treatment withdrawal): rapidly relapsed; also recorded: rapid relapse | Treatment & response (AML mouse model AM7577): complete remission | Leukemic blasts in peripheral blood on resuming treatment after withdrawal (second dosing period after relapse): effectively re-suppressed | Survival of AM7577-mice (under treatment vs vehicle group): extended life; also recorded: extended AM7577-mice survival times

CNC(=O)c1cc(Oc2ccc(NC(=O)Nc3ccc(Cl)c(C(F)(F)F)c3)cc2)ccn1 [sorafenib]
Inhibition of leukemia in blood: Inhibition
